# Assay results reported in paper PMC7855844 (Bioorganic & medicinal chemistry, 2020).
# Tests used:
# Mcl-1 protein = Mcl-1 protein (Homo sapiens, UniProt Q07820); test: Fluorescence polarization-based binding; conditions: for decrease in Mcl-1 inhibitory activity: compared with coumarin 33
# A549 cells = test: Cytotoxicity assay by SRB method; conditions: taxol in combination with Cpd 4 vs taxol alone
# Sequence of Mcl-1 protein (Q07820 whole entry): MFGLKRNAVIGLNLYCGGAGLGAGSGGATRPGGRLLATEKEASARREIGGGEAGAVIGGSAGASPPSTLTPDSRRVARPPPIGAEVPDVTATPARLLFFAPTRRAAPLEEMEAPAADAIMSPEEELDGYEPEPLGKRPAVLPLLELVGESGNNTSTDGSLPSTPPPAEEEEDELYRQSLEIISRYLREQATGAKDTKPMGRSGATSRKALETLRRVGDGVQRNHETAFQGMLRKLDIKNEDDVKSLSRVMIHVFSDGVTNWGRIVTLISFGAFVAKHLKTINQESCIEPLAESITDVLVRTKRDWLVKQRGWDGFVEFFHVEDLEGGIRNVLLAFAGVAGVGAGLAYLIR
compound,measurement,setting,value
"O=c1ccc2ccc(O)cc2o1 [Cpd 35, 7-hydroxycoumarin]",decrease in Mcl-1 inhibitory activity,Mcl-1 protein,little effect
FAM-Bid: Bid BH3 peptide of 21-residue (residues 79–99) with a 6-carboxy-fluorescein succinimidyl ester fluorescence tag [reference compound],Kd,"Mcl-1 protein; read-out: Kd for binding to Mcl-1 protein, saturation experiments",13 nM
"Cc1cc(=O)oc2c(CN3CCC(O)CC3)c(O)c(O)cc12 [Cpd 15, 6,7-dihydroxy-8-((4-hydroxypiperidin-1-yl)methyl)-4-methyl-2H-chromen-2-one]",decrease of Mcl-1 inhibitory activity,Mcl-1 protein; compared with parent 1,more than 7 fold
CC(=O)O[C@H]1C(=O)[C@@]2(C)[C@H]([C@H](OC(=O)c3ccccc3)[C@]3(O)C[C@H](OC(=O)[C@H](O)[C@@H](NC(=O)c4ccccc4)c4ccccc4)C(C)=C1C3(C)C)[C@]1(OC(C)=O)CO[C@@H]1C[C@@H]2O [taxol],decrease of IC50 value for the combination compared with taxol alone,A549 cells,more than 10 fold
"O=c1ccc2cc(O)ccc2o1 [Cpd 34, 6-hydroxycoumarin]",decrease in Mcl-1 inhibitory activity,Mcl-1 protein,6 fold
